Assay results taken from patent US9937234B2, “Compositions and methods for using and identifying antimicrobial agents” (priority 2013, dated 2018).

System: B. anthracis Sterne strain ΔftsX
Type: cell-based, Bacillus anthracis

Molecule: human CXCL9
- susceptibility of ΔftsX: resistant

Molecule: human CXCL10
- susceptibility of ΔftsX exponential and stationary phase organisms: both resistant
- susceptibility of ΔftsX to CXCL10-mediated killing: resistance

B1: human CXCL11 (protein, listed as Homo sapiens)
chain: QGFPMFKRGRCLCIGPGVKAVKVADIEKASIMYPSNNCDKIEVIITLKENKGQRCLNPKSKQARLIIKKVERKNF
- susceptibility of ΔftsX: resistant
